Read-outs that look alike come from different tables or passages of the source.
Key:
[1] = Dissolved fraction in gamma-cyclodextrin solution, filtered vs unfiltered absorbance at 300 nm; format: physicochemical; conditions: for bazedoxifene acetate dissolved: sonicated at 40° C. for 6 hours
Method: 1.2 mL of a 40 mg/mL solution of GCD in distilled water was added into the microtube. The solution was sonicated at 40° C. for 6 hours. […] The concentration of GCD remained the same in all solutions, specifically 40 mg/mL.
Aliquots of the solutions were filtered through a 0.22 μm disc filter.
1.5 mL of a 40 mg/mL solution of gamma-cyclodextrin in saline was added into the microtube. The solution was sonicated at 40° C. for 6 hours. […] The concentration of gamma-cyclodextrin remained the same in all solutions, specifically 40 mg/mL.
1.2 mL of a 40 mg/mL solution of GCD in phosphate-buffered saline was added into the microtube. The solution was sonicated at 40° C. for 6 hours. […] The concentration of GCD remained the same in all solutions, specifically. 40 mg/ml.
The resulting mixture was ground for 20 minutes at a set grinding speed of 1000 rpm and a grinding temperature of 37° C.
20 mg of the ground mixture was weighed into a microtube and combined with 0.5 mL distilled water. The sample was then sonicated for 5 minutes at 45° C.
An aliquot of the sonicated solution was filtered through a 0.22 μm disc filter.

[2] = Aggregation study: UV-Vis spectra before and after 0.22 μm filtration; format: physicochemical; conditions: DMSO stock diluted with saline, 4 hours at room temperature, 0.22 μm disc filter
Method: The drug concentration was […]. The sample was left for 4 hours at room temperature. UV-visible absorbance spectra of the solution before and after filtration (employing a 0.22 μm disc filter) were measured.
The formulations were placed in an ultrasonic bath at elevated temperature (40° C.) for 6 hours. After cooling to room temperature, UV-Vis spectra were measured for unfiltered solutions as well as for the solutions after filtration using a 0.22 μm disc filter.

[3] = rats, bazedoxifene acetate in SBECD
[4] = clinical; conditions: both, human, in vivo, inhaled or intranasal, 1.13 mg
[5] = healthy volunteers, inhalation of BAZE-X1 1.13 mg

| SMILES | bazedoxifene acetate dissolved ([1]; 40 mg/mL GCD in distilled water) [%] | bazedoxifene acetate dissolved ([1]; 40 mg/mL GCD in phosphate-buffered saline) [%] | bazedoxifene acetate dissolved ([1]; 40 mg/mL gamma-cyclodextrin in saline) [%] | absorbance features of the drug after filtration (aggregation) [2] | starting bazedoxifene dissolved ([1]; mixture ground with GCD (50 mg:250 mg), 20 mg in 0.5 mL distilled water, sonicated 5 minutes at 45° C.) [%] | pathological lesions in the lungs and trachea ([3]; single intranasal 0.5 mg/kg) | pathological lesions in the lungs and trachea ([3]; single intravenous 0.5 mg/kg) | half-life [4] [h] | plasma levels (pg/mL) and AUC values (h·pg/mL) [5] | time to maximum plasma concentration ([5]; first measurement) [min] |
| --- | --- | --- | --- | --- | --- | --- | --- | --- | --- | --- |
| Cc1c(-c2ccc(O)cc2)n(Cc2ccc(OCCN3CCCCCC3)cc2)c2ccc(O)cc12 [bazedoxifene acetate] | 97 | 95 | 92 | sharp decrease in absorbance features |  |  |  |  |  |  |
| Cc1c(-c2ccc(O)cc2)n(Cc2ccc(OCCN3CCCCCC3)cc2)c2ccc(O)cc12 [bazedoxifene] |  |  |  |  | 99 | did not cause pathological lesions | did not cause pathological lesions | 21 | very low, in majority near the limit of quantitation | 10 |
